For seven compounds, CC50 and EC50 results are on record in patent publication EP0829476B1, “6-Substituted acyclopyrimidine nucleoside derivatives and antiviral agent containing the same as active ingredient thereof” (MITSUBISHI CHEMICAL CORPORATION, priority 1989, dated 1991).

Broadly, the EC50 is the concentration giving half of the maximal effect.

Series [1] in a line: Cytotoxicity: destruction of MT-4 cells not infected with HIV, cultured the same way. Type of series: cell-based. The conditions noted are these: human, 5 days of incubation, concentration at which 50 % of the MT-4 cells were destroyed, read-out: 50% cytotoxic concentration to MT-4 cells. How it is done: (§1) In RPMI 1640 DM culture medium containing 20 mM of Hepes buffer solution, 10 % fetal bovine serum and 20 µg/ml of gentamycin, 3 x 10^4 MT-4 cells (human T cell clone which is destroyed by the infection of HIV) were infected with HIV in an amount of 100 times as large as expected to cause 50 % infection of the cells. Immediately thereafter, a predetermined amount of sample was added to the culture medium using 50 mg/ml sample solutions in dimethyl sulfoxide and the cells were cultured at 37°C.
(§2) After 5 days of incubation, the number of existing cells was counted to determine the concentration of the compound for preventing the death of 50 % of the MT-4 cells. Separately, MT-4 cells were cultured in the same way as above except that they were not infected with HIV to determine the concentration of the compound at which 50 % of the MT-4 cells were destroyed.

In another series the test system is HIV. The series is described as follows: Inhibitory activity for HIV infection: prevention of death of HIV-infected MT-4 cells, cell count after 5 days. The conditions noted are these: Human immunodeficiency virus 1, MT4, 120 h, 5 days of incubation at 37°C, concentration preventing the death of 50 % of the MT-4 cells. It is filed as cell-based. How it is done:
Inhibitory activity for HIV infection
as §1, §2

Each structure is given as a SMILES string.

In the case of `CC(=O)OCCOCn1c(Sc2ccccc2)c(C)c(=O)[nH]c1=S` [Compound 1, 1-[(2-acetoxyethoxy)methyl]-6-phenylthio-2-thiothymine], the CC50 at 120 h in series [1] amounted to 196 µM. In the case of `CCCOCn1c(Sc2ccccc2)c(C)c(=O)[nH]c1=O` [Compound 38], in series [1], the CC50 at 120 h was determined as 147 µM. Besides, in the series with HIV, the EC50 worked out at 5.6 µM.

`CCOCn1c(-c2ccccc2)c(CC)c(=O)[nH]c1=S` [Compound 215, 1-ethoxymethyl-5-ethyl-6-phenylthiouracil]: the CC50 at 120 h in series [1] worked out at 133 µM. Moreover, the concentration for a half-maximal effect (EC50) with HIV amounted to 0.016 µM.

In the case of `CCCCn1c(-c2ccccc2)c(CC)c(=O)[nH]c1=S` [Compound 220, 1-butyl-5-ethyl-6-phenylthiouracil], the CC50 at 120 h in series [1] was found to be 45 µM. Moreover, in the series on HIV, a half-maximal effect (EC50) was put at 0.016 µM. As to `CCOCn1c(Sc2ccccc2)c(CC)c(=O)[nH]c1=S` [Compound 313, 1-ethoxymethyl-5-ethyl-6-phenylthio-2-thiouracil], in series [1], the CC50 at 120 h came to 81 µM. On to `CCOCn1c(Sc2cc(C)cc(C)c2)c(CC)c(=O)[nH]c1=S` [Compound 314], for which the CC50 at 120 h in series [1] is greater than 100 µM. Moreover, it took 0.004 µM to reach a half-maximal effect in the series on HIV (EC50). On to `CCOCn1c(Cc2ccccc2)c(CC)c(=O)[nH]c1=O` [Compound 427, 6-benzyl-1-ethoxymethyl-5-ethyluracil], for which the CC50 at 120 h in series [1] worked out at 245 µM.
